Laboratory results taken from article PMC11178545, “Alkynyl nicotinamides show antileukemic activity in drug-resistant acute myeloid leukemia” (The Journal of Clinical Investigation, 2024).
Values joined by “and” are separate entries in the source; they are usually repeats but may differ in a detail not shown here. Equal entries are not always repeated. Where two headings read alike, the source gives them in different places.

How the values were obtained:
[1] = system: BaF3 cells transduced with Flt3ITD/ITD, with IL3; test: BaF3 Flt3ITD/ITD proliferation in the presence of IL3 (Supplementary Figure 3A); details: replicates
[2] = system: BaF3 cells expressing FLT3ITD; test: BaF3 proliferation, colorimetric WST-1 assay; format: cell-based, murine; details: for proliferation, colorimetric assay: BaF3/FLT3 ITD, 48 hours, replicates; for IC50: Mus musculus
[3] = system: BaF3 cells expressing FLT3ITD-D835Y; test: BaF3 proliferation, colorimetric WST-1 assay; details: for proliferation, colorimetric assay: BaF3/FLT3 ITD-D835Y, 48 hours, replicates; for IC50: Mus musculus, BaF3, read-out: IC50, growth inhibition
[4] = concentration 0.016 (unit not given)
[5] = concentration 0.4 (unit not given)
[6] = concentration 2 (unit not given), listed as Midostuarin
[7] = concentration 10 (unit not given), listed as Midostuarin
[8] = concentration 50 (unit not given), listed as Midostuarin
[9] = concentration 250 (unit not given), listed as Midostuarin
[10] = concentration 1000 (unit not given), listed as Midostuarin
[11] = concentration 0.08 (unit not given), listed as Midostuarin
[12] = concentration 0.4 (unit not given), listed as Midostuarin
[13] = concentration 0.08 (unit not given)
[14] = concentration 2 (unit not given)
[15] = concentration 10 (unit not given)
[16] = concentration 50 (unit not given)
[17] = concentration 250 (unit not given)
[18] = concentration 1000 (unit not given)
[19] = concentration 5000 (unit not given)

Row | SMILES | Supplementary Figure 3A - BaF3-ITD+IL3 proliferation [1, 4] | Supplementary Figure 3A - BaF3-ITD+IL3 proliferation [1, 5] | proliferation, colorimetric assay [3, 4] | Supplementary Figure 3A - BaF3-ITD+IL3 proliferation [1, 13] | Supplementary Figure 3A - BaF3-ITD+IL3 proliferation [1, 14] | Supplementary Figure 3A - BaF3-ITD+IL3 proliferation [1, 15] | Supplementary Figure 3A - BaF3-ITD+IL3 proliferation [1, 16] | Supplementary Figure 3A - BaF3-ITD+IL3 proliferation [1, 17] | Supplementary Figure 3A - BaF3-ITD+IL3 proliferation [1, 18] | Supplementary Figure 3A - BaF3-ITD+IL3 proliferation [1, 19] | proliferation, colorimetric assay [2, 4] | proliferation, colorimetric assay [2, 13] | proliferation, colorimetric assay [2, 5] | proliferation, colorimetric assay [2, 14] | proliferation, colorimetric assay [2, 15] | proliferation, colorimetric assay [2, 16] | proliferation, colorimetric assay [2, 17] | proliferation, colorimetric assay [3, 13] | proliferation, colorimetric assay [3, 5] | proliferation, colorimetric assay [3, 14] | further results
1 | CO[C@@H]1[C@H](N(C)C(=O)c2ccccc2)C[C@H]2O[C@]1(C)n1c3ccccc3c3c4c(c5c6ccccc6n2c5c31)C(=O)NC4 [Midostaurin] | 91.5686 | 100.9 | 103.305 | – | – | – | – | – | – | – | – | – | – | – | – | – | – | – | – | – | Supplementary Figure 3A - BaF3-ITD+IL3 proliferation [1, 6]: 105.72 and 98.3726 and 124.683; Supplementary Figure 3A - BaF3-ITD+IL3 proliferation [1, 7]: 110.807 and 113.1 and 132.819; Supplementary Figure 3A - BaF3-ITD+IL3 proliferation [1, 8]: 106.186 and 111.038 and 133.216; Supplementary Figure 3A - BaF3-ITD+IL3 proliferation [1, 9]: 110.669 and 139.596; Supplementary Figure 3A - BaF3-ITD+IL3 proliferation [1, 10]: 9.826 and 146.156; Supplementary Figure 3A - BaF3-ITD+IL3 proliferation ([1]; concentration 5000 (unit not given), listed as Midostuarin): 3.94 and -0.5106; proliferation, colorimetric assay ([2]; concentration 0.016 (unit not given), listed as Midostuarin): 100.822 and 110.628 and 104.388; proliferation, colorimetric assay [2, 11]: 99.3158 and 113.294 and 110.094 and 38.1922; proliferation, colorimetric assay [2, 12]: 103.096 and 110.499 and 104.386 and 61.929; proliferation, colorimetric assay [2, 6]: 104.186 and 115.142 and 102.467 and 142.341; proliferation, colorimetric assay [2, 7]: 37.6324 and 34.6342 and 45.0183 and 96.6129; proliferation, colorimetric assay [2, 8]: 6.377 and 12.3055 and 3.243 and 9.898; proliferation, colorimetric assay [2, 9]: 0.5457 and 1.807 and -0.6585 and 0.387; proliferation, colorimetric assay [3, 11]: 108.476 and 93.9081; proliferation, colorimetric assay [3, 12]: 108.102 and 98.6805 and 100.719; proliferation, colorimetric assay [3, 6]: 111.763 and 100.839 and 106.043; proliferation, colorimetric assay [3, 7]: 46.6696 and 71.6598 and 33.3064; proliferation, colorimetric assay [3, 8]: 14.4574 and 14.3192 and 6.786; proliferation, colorimetric assay [3, 9]: 11.4376 and 9.499 and 3.744; proliferation, colorimetric assay [3, 10]: 3.105 and 1.155
2 | Cc1ccc(C(=O)Nc2ccc(CN3CCN(C)CC3)c(C(F)(F)F)c2)cc1C#Cc1cnc2cccnn12 [Ponatinib] | 100.2 | 94.562 | 105.632 | 100.413 | 103.021 and 110.146 and 131.879 | 104.504 and 106.518 and 133.143 | 106.029 and 102.109 and 134.35 | 109.055 and 106.007 and 134.452 | 75.4094 and 10.3894 | 0.9902 and -0.5808 | 103.303 and 29.4843 and 104.802 and 107.771 | 103.551 and 112.425 and 114.204 | 63.9851 and 109.481 and 101.917 | 12.349 and 96.4027 and 63.939 and 105.862 | 7.628 and 22.9278 and 11.2521 and 38.4511 | 2.92 and 5.376 and 0.7258 and 6.47 | 5.173 and 2.723 and -0.4582 and 0.3438 | 110.397 and 108.415 and 100.457 | 112.735 and 103.362 and 108.642 | 92.8711 and 101.44 and 100.79 | IC50 ([2]; BaF3, read-out: IC50, growth inhibition): 2.54 nM; proliferation, colorimetric assay [3, 15]: 111.954 and 107.659; proliferation, colorimetric assay [3, 16]: 78.5183 and 101.652 and 95.7414; proliferation, colorimetric assay [3, 17]: 19.3842 and 49.6264 and 16.1584; proliferation, colorimetric assay [3, 18]: 2.173 and 0.6094; IC50 [3]: 162 nM
3 | CNC(=O)c1cc(Oc2ccc(NC(=O)Nc3ccc(Cl)c(C(F)(F)F)c3)cc2)ccn1 [Sorafenib] | 102.183 | 106.455 | 94.7245 | 99.8176 | 107.595 and 105.229 and 115.278 | 111.02 and 105.412 and 136.419 | 101.081 and 115.196 and 123.039 | 102.541 and 117.007 and 139.808 | 122.84 and 135.916 | 77.5171 and 4.823 | 16.3815 and 107.167 and 106.617 and 105.393 | 11.5881 and 112.929 and 104.573 and 131.213 | 10.6541 and 113.594 and 9.4402 and 110.22 | 98.6784 and 107.329 and 5.2213 and 125.689 | 18.373 and 31.6289 and 5.419 and 106.507 | 7.163 and 11.5817 and 3.098 and 23.7431 | 5.383 and 5.798 and 3.082 and 8.355 | 78.2586 and 100.59 and 93.5618 | 71.3463 and 101.258 and 87.9764 | 114.498 and 101.128 and 64.2837 | IC50 ([2]; BaF3 FLT3ITD, read-out: IC50, growth inhibition): 0.9 nM; proliferation, colorimetric assay [3, 15]: 112.637 and 109.063 and 80.4355; proliferation, colorimetric assay [3, 16]: 116.564 and 100.156 and 98.1229; proliferation, colorimetric assay [3, 17]: 119.18 and 103.897 and 90.2769; proliferation, colorimetric assay [3, 18]: 83.0213 and 52.2833; IC50 [3]: 1100 nM
